IC50 data for 7 compounds are collected here from patent US9555050B2 (BIOGEN MA INC., priority 2012, dated 2017).

Molecules are shown by their SMILES.

By IC50 is commonly meant the concentration that inhibits the measured activity by half. The low end stands for higher potency, the high end for lower potency.

This test concerns the target T1, Human ATX protein (Homo sapiens, UniProt Q13822).
T1 construct: made in house
The test is described as follows: ATX biochemical FRET assay with FS-3 substrate. To be noted: FS-3 substrate 2 μM, ATX 1.0 μg/mL, 30 min preincubation, 2 hours at room temperature. Put shortly:
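In-house purified human ATX (1.0 μg/mL final) pre-incubated 30 min at room temperature with compound in Tris buffer pH 7.4 with salts and 1 mg/mL fatty acid-free BSA. FS-3 substrate (2 μM final) then hydrolysed 2 h at room temperature, protected from light; fluorescence read at 485/538 nm.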
For the compound `C[C@H]1CC[C@@H](Oc2ccc3cc(CN4CCC(C(=O)O)CC4)ccc3c2C(F)F)CC1` [Example 13, 1-((5-(Difluoromethyl)-6-((cis-4-methylcyclohexyl)oxy)naphthalen-2-yl)methyl)piperidine-4-carboxylic acid], the IC50 was no more than 100 nM.
To `O=C(O)C1CCN(Cc2ccc3c(C(F)F)c(O[C@H]4CC[C@@H](C(F)(F)F)CC4)ccc3c2)CC1` [Example 21, 1-((5-(difluoromethyl)-6-((cis-4-(trifluoromethyl)cyclohexyl)oxy)naphthalen-2-yl)methyl)piperidine-4-carboxylic acid] belongs no more than 250 nM.
To `O=C(O)C[C@H]1CCCN(Cc2ccc3c(C(F)(F)F)c(O[C@H]4CC[C@@H](C(F)(F)F)CC4)ccc3n2)C1` [Example 14, 2-((R)-1-(((5-(trifluoromethyl)-6-(cis-4-(trifluoromethyl)cyclohexyl)oxy)quinolin-2-yl)methyl)piperidin-3-yl)acetic acid] belongs no more than 250 nM; to `CN(Cc1ccc2c(C(F)(F)F)c(O[C@H]3CC[C@@H](C(F)(F)F)CC3)ccc2c1)[C@H]1CC[C@@H](C(=O)O)CC1` [Example 79, N-methyl-cis-4-(((5-(trifluoromethyl)-6-(cis-4-(trifluoromethyl)cyclohexyloxy)naphthalene-2-yl)methyl)amino)cyclohexane-1-carboxylic acid], no more than 500 nM; to `O=C(O)C1CCC(NCc2ccc3c(C(F)(F)F)c(O[C@H]4CC[C@@H](C(F)(F)F)CC4)ccc3c2)C1` (relative stereo) [Example 66, 1-((5-(trifluoromethyl)-6-((cis-4-(trifluoromethyl)cyclohexyl)oxy)-naphthalen-2-yl)methyl)aminocyclopentane-3-carboxylic acid], no more than 500 nM.
`O=C(O)CC1CN(Cc2ccc3c(C(F)(F)F)c(O[C@H]4CC[C@@H](C(F)(F)F)CC4)ccc3c2)C1` [Example 62, 2-(1-((5-(trifluoromethyl)-6-(4-cis-(trifluoromethyl)cyclohexyloxy)naphthalene-2-yl)methyl)azetidine-3-yl)acetic acid] yielded an IC50 of no more than 250 nM.
In the case of `CC(C)C(NC1CC(C(=O)O)C1(C)C)c1ccc2c(C(F)(F)F)c(O[C@H]3CC[C@@H](C(F)(F)F)CC3)ccc2c1` (relative stereo) [Example 39, 2,2-dimethyl-3-(2-methyl-1-(5-(trifluoromethyl)-6-((cis)-4-(trifluoromethyl)cyclohexyloxy)naphthalen-2-yl)propylamino)cyclobutanecarboxylic acid] it was no more than 250 nM.
